Measurements published in patent publication US7524853B2 (Solvay Pharmaceuticals B.V., priority 2003, dated 2009).

Assays:
Type in all cases: cell-based
[1] = target: T1, 17β-hydroxysteroid dehydrogenase type 2 (17β-HSD type 2) (Homo sapiens, UniProt P37059); assay: Inhibition of 17β-HSD type 2 in MCF-7 cells stably expressing the isoenzyme (tritium labeled estradiol conversion, HPLC); conditions: MCF7, MCF-7 cells expressing 17β-HSD type 2, 2 nM tritium labeled estradiol; for inhibition at 1 µM: 1 μM test compound, read-out: % Inhibition HSD2 1 μM; for inhibition at 10 µM: 10 μM test compound, read-out: % Inhibition HSD2 10 μM
T1 construct: expressed in transfected cells; host or cells: MCF-7
T1 sequence (P37059 1-387): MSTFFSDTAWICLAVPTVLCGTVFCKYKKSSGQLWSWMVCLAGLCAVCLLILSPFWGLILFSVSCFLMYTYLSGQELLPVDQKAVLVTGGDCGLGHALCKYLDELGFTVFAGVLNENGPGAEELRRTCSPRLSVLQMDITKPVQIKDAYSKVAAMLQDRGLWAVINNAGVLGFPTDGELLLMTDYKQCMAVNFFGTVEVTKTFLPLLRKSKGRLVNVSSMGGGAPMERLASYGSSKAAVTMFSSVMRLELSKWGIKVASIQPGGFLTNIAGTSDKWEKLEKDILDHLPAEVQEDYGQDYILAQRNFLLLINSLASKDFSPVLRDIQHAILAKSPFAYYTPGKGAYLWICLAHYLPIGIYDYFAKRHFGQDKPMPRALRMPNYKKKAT
Summary of the method: (§1)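 MCF-7 lines stably expressing each 17β-HSD isoenzyme incubated in growth medium with compound at two concentrations and 2 nM tritiated substrate (estrone, type 1; estradiol, type 2; androstenedione, type 3). Reaction stopped with TCA; conversion measured by HPLC with flow scintillation, inhibition relative to compound-free control.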

[2] = target: T2, 17β-hydroxysteroid dehydrogenase type 3 (17β-HSD type 3) (Homo sapiens, UniProt P37058); assay: Inhibition of 17β-HSD type 3 in MCF-7 cells stably expressing the isoenzyme (tritium labeled androstenedione conversion, HPLC); conditions: MCF7, MCF-7 cells expressing 17β-HSD type 3, 2 nM tritium labeled androstenedione; for inhibition at 1 µM: 1 μM test compound, read-out: % Inhibition HSD3 1 μM; for inhibition at 10 µM: 10 μM test compound, read-out: % Inhibition HSD3 10 μM
T2 construct: expressed in transfected cells; host or cells: MCF-7
T2 sequence (P37058 1-310): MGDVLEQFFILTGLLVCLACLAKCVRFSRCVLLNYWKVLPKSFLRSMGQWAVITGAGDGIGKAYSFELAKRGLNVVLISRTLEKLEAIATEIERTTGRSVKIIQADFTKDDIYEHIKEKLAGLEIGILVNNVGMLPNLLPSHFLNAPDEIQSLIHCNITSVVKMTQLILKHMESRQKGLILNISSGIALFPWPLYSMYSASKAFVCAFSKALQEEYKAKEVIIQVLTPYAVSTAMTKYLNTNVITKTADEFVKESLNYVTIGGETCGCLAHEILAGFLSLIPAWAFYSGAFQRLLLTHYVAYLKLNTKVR
Summary of the method: as §1

[3] = target: T3, 17β-hydroxysteroid dehydrogenase type 1 (17β-HSD type 1) (Homo sapiens, UniProt P14061); assay: Inhibition of 17β-HSD type 1 in MCF-7 cells stably expressing the isoenzyme (tritium labeled estrone conversion, HPLC); conditions: MCF7, MCF-7 cells expressing 17β-HSD type 1, 2 nM tritium labeled estrone; for inhibition at 1 µM: 1 μM test compound, read-out: % Inhibition HSD1 1 μM; for inhibition at 10 µM: 10 μM test compound, read-out: % Inhibition HSD1 10 μM
T3 construct: expressed in transfected cells; host or cells: MCF-7
T3 sequence (P14061 1-328): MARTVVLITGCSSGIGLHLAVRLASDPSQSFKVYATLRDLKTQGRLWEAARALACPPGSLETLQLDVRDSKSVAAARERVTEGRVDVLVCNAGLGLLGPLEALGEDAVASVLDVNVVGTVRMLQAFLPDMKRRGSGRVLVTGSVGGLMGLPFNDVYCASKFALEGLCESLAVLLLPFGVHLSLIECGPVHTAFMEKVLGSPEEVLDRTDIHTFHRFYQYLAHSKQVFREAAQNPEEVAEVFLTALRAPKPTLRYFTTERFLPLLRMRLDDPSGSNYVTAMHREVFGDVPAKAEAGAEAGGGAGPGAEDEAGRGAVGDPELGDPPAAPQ
Summary of the method: as §1

Row | SMILES | inhibition at 1 µM [1] [%] | inhibition at 10 µM [1] [%] | inhibition at 1 µM [2] [%] | inhibition at 10 µM [2] [%] | inhibition at 1 µM [3] [%] | inhibition at 10 µM [3] [%]
1 | CCCc1nc2sc3c(c2c(=O)n1Cc1cc(Br)ccc1OC)CCC(Br)(Br)C3=O [No. 97, 7,7-Dibromo-3-(5-bromo-2-methoxybenzyl)-2-propyl-6,7-dihydro-3H,5H-benzo[4,5]thieno[2,3-d]pyrimidine-4,8-dione] | 25.2 | 44.6 | -5.9 | 11.5 | 18.1 | 29.4
2 | CCCc1nc2sc3c(O)cccc3c2c(=O)n1Cc1cc(Br)ccc1OC [No. 98] | 46.6 | 82.8 | 16.6 | 63.3 | 28.2 | 69.1
3 | CCCc1nc2sc3c(OC(C)=O)cccc3c2c(=O)n1Cc1cc(Br)ccc1OC [No. 99] | 46.1 | 85.4 | 15.9 | 68.9 | 21.8 | 64.5
4 | CCCc1nc2sc3c(O)cccc3c2c(=O)n1Cc1cc(Br)ccc1O [No. 100, 3-(5-Bromo-2-hydroxybenzyl)-8-hydroxy-2-propyl-3H-benzo[4,5]thieno[2,3-d]pyrimidin-4-one] | 28.8 | 81.3 | -0.8 | 7.7 | 23.5 | 66.7
5 | CCCc1nc2sc3c(c2c(=O)n1Cc1ccco1)CCCC3 [No. 101, 3-(Furan-2-ylmethyl)-2-propyl-5,6,7,8-tetrahydro-3H-benzo[4,5]thieno[2,3-d]pyrimidin-4-one] | 18 | 30 | 5.7 | 7.8 | 14.1 | 26
6 | CCCc1nc2sc3c(c2c(=O)n1Cc1ccco1)CCCC3=O [No. 102, 3-(Furan-2-ylmethyl)-2-propyl-6,7-dihydro-3H,5H-benzo[4,5]thieno[2,3-d]pyrimidine-4,8-dione] | 13.6 | 18.6 | 6.7 | 51.2 | 14.8 | 57.5
7 | CCCc1nc2sc3c(c2c(=O)n1Cc1ccc(Br)o1)CCC(Br)C3=O (stereo not drawn) [No. 103, 7-Bromo-3-(5-bromofuran-2-ylmethyl)-2-propyl-6,7-dihydro-3H,5H-benzo[4,5]thieno[2,3-d]pyrimidine-4,8-dione] | 30.7 | 49.7 | -7.7 | 51.8 | 16.2 | 70.6
8 | CCCc1nc2sc3c(c2c(=O)n1Cc1ccc(Br)o1)CCC(Br)(Br)C3=O [No. 104, 7,7-Dibromo-3-(5-bromofuran-2-ylmethyl)-2-propyl-6,7-dihydro-3H,5H-benzo[4,5]thieno[2,3-d]pyrimidine-4,8-dione] | 26.6 | 47.9 | -5 | 51.4 | 20.2 | 42.6
9 | CCCc1nc2sc3c(O)cccc3c2c(=O)n1Cc1ccc(Br)o1 [No. 105, 3-(5-Bromofuran-2-ylmethyl)-8-hydroxy-2-propyl-3H-benzo[4,5]thieno[2,3-d]pyrimidin-4-one] | 50.7 | 85.9 | 17.7 | 67.3 | 29.8 | 61.2
10 | CCCc1nc2sc3c(OC(C)=O)cccc3c2c(=O)n1Cc1ccc(Br)o1 [No. 106, Acetic acid 3-(5-bromofuran-2-ylmethyl)-4-oxo-2-propyl-3,4-dihydro-benzo[4,5]thieno[2,3-d]pyrimidin-8-yl ester] | 50 | 86.2 | 8.1 | 71.1 | 28.8 | 72.5
